According to article PMC8394033, “Cytocidal Antitumor Effects against Human Ovarian Cancer Cells Induced by B-Lactam Steroid Alkylators with Targeted Activity against Poly (ADP-Ribose) Polymerase (PARP) Enzymes in a Cell-Free Assay” (Biomedicines, 2021):
Several values for one entry are separate records, joined by “and”; a condition that tells them apart may be missing. Identical values can stand only once. Like-named read-outs stand apart in the source and are kept apart here. Marks after values point to notes of the source that are not given here.

Legend:
[1] = tested on: PHA-stimulated PBMCs (T-lymphocytes) from healthy donors; experiment: Sister chromatid exchanges (SCEs) assay, genotoxicity and PRI
PARP1 mRNA (PARP1/ACTB) = format: cell-based, human
OVCAR-3 [2] = conditions: for GI50: read-out: GI50 ±SEM (50% inhibition of cell growth, cytostatic); for IC50: read-out: IC50 ±SEM (50% cytocidal effect, cytotoxic)
SKOV-3 [3] = conditions: for GI50: read-out: GI50 ±SEM (50% inhibition of cell growth, cytostatic); for IC50: read-out: IC50 ±SEM (50% cytocidal effect, cytotoxic)
UWB1.289 [4] = conditions: for GI50: read-out: GI50 ±SEM (50% inhibition of cell growth, cytostatic); for IC50: read-out: IC50 ±SEM (50% cytocidal effect, cytotoxic)
UWB1.289 [5] = experiment: Sister chromatid exchanges (SCEs) assay, genotoxicity and PRI
MRC-5 = experiment: MTT assay, selectivity on normal lung fibroblasts; conditions: for GI50: Homo sapiens, MRC5, 48 h, read-out: GI50 ±SEM (50% inhibition of cell growth, cytostatic)
[6] = MTT assay, selectivity on normal lung fibroblasts; conditions: human, MRC-5 normal lung fibroblasts
[7] = tested on: PHA-stimulated PBMCs (T-lymphocytes) from healthy donors; conditions: human
OVCAR-3 [8] = conditions: human
UWB1.289 [9] = conditions: human
SKOV-3 [10] = conditions: human
UWB1.289 [11] = conditions: human; remark: listed apart in the source
in vitro = conditions: human
PARP2 mRNA (PARP2/ACTB) = experiment: PARP2 mRNA expression analysis by qRT-PCR; format: cell-based, human; conditions: UWB1.289, vs untreated cells, 20 and 40 μΜ, 72 h

## NC(=O)c1cccc(N)c1 [3-AB, 3-Aminobenzamide, reference compound]
[1]; mean of 5 donors' PBMCs, 3 μM
  Mean PRI ± SD: 2.696 ± 0.12
  Mean SCE/Chromosome ± SD: 0.30 ± 0.03
  Mean SCEs/metaphase Mean ± SD: 14.03 ± 1.24
PARP1 mRNA (PARP1/ACTB)
  alterations in the PARP1/ACTB mRNA cellular content: non-significant alterations
OVCAR-3 [2]; OVCAR-3, 48 h treatment, MTT
  TGI ±SEM (100% cell growth inhibition, cytostatic): >100 µM
  GI50: > 100 µM
  IC50: > 100 µM
SKOV-3 [3]; SKOV-3, 48 h treatment, MTT
  TGI ±SEM (100% cell growth inhibition, cytostatic): >100 µM
  GI50: > 100 µM
  IC50: > 100 µM
UWB1.289 [4]; UWB1.289, 48 h treatment, MTT
  TGI ±SEM (100% cell growth inhibition, cytostatic): >100 µM
  GI50: 92 ± 13 µM
  IC50: > 100 µM
UWB1.289 [5]; UWB1.289, 3 μM
  SCE/Chromosome ± SEM: 0.43 ± 0.025
  SCEs/Metaphase ± SEM: 31.91 ± 1.88
MRC-5
  GI50: > 100 µM
MRC-5; MRC-5 normal human lung fibroblasts, 48 h treatment, MTT
  TGI ±SEM (100% cell growth inhibition, cytostatic): >100 µM
[6]
  IC50 at 48 h: > 100 µM

## C[C@]12CC[C@H](OC(=O)CCOc3ccc(N(CCCl)CCCl)cc3)CC1=CC(=O)NC1C2CC[C@]2(C)C(=O)CCC12 (stereo partly shown) [ASA-A, 7a,9a-dimethyl-2,10-dioxo-1,2,4,5,6,7,7a,7b, 8,9,9a,10,11,12,12a,12b-hexadecahydrobenzo[d]indeno [4,5-b]azepin-5-yl 3-(4-(bis(2-chloroethyl)amino)phenoxy)propanoate]
[7]
  Mean SCE/Chromosome ± SD: 0.66 ± 0.04
  Mean SCEs/metaphase Mean ± SD: 30.28 ± 2.03
[1]
  Mean PRI ± SD: 2.18 ± 0.13
  PRI (Proliferation Rate Index): 2.13 and 2.21 and 1.98 and 2.32 and 2.26
OVCAR-3 [8]
  IC50: 47 ± 4.82 µM
UWB1.289 [9]
  SCE/Chromosome ± SEM: 1.0 ± 0.054
  SCEs/Metaphase ± SEM: 73.78 ± 4.03
SKOV-3 [10]
  IC50: 67 ± 7.11 µM
OVCAR-3 [2]
  TGI ±SEM (100% cell growth inhibition, cytostatic): 38 ± 2.95 µM
  GI50: 29 ± 3.04 µM
SKOV-3 [3]
  TGI ±SEM (100% cell growth inhibition, cytostatic): 33 ± 2.79 µM
  GI50: 15 ± 1.26 µM
UWB1.289 [11]
  IC50: 71 ± 7.01 µM
UWB1.289 [4]
  TGI ±SEM (100% cell growth inhibition, cytostatic): 52 ± 4.61 µM
  GI50: 19 ± 1.83 µM
UWB1.289 [5]
  PRI (Proliferation Rate Index): 1.88 *
MRC-5
  TGI ±SEM (100% cell growth inhibition, cytostatic): >100 µM
  GI50: 69 ± 7.13 µM
In vitro
  IC50: > 100 µM

## CC12CCC3C(NC(=O)C=C4CC(OC(=O)CCOc5ccc(N(CCCl)CCCl)cc5)CCC43C)C1CCC(=O)N2 (stereo not shown) [ASA-B, 11a,13a-dimethyl-2,6-dioxo-2,3,4,4a,4b,5,6,8,9,10,11,11a,11b,12,13,13a-hexadecahydro-1H-benzo[4,5]azepino [2,3-f]quinolin-9-yl 3-(4-(bis(2-chloroethyl)amino)phenoxy)propanoate]
[7]
  Mean SCE/Chromosome ± SD: 0.86 ± 0.06
  Mean SCEs/metaphase Mean ± SD: 39.54 ± 2.84
[1]
  Mean PRI ± SD: 2.23 ± 0.12
  PRI (Proliferation Rate Index): 2.30 and 2.18 and 2.04 and 2.34 and 2.29
OVCAR-3 [8]
  IC50: > 100 µM
UWB1.289 [9]
  SCE/Chromosome ± SEM: 1.17 ± 0.07
  SCEs/Metaphase ± SEM: 86.76 ± 4.97
SKOV-3 [10]
  IC50: 98 ± 8.97 µM
OVCAR-3 [2]
  TGI ±SEM (100% cell growth inhibition, cytostatic): 81 ± 7.82 µM
  GI50: 44 ± 5.04 µM
SKOV-3 [3]
  TGI ±SEM (100% cell growth inhibition, cytostatic): 51 ± 4.46 µM
  GI50: 24 ± 2.42 µM
UWB1.289 [11]
  IC50: 54 ± 5.11 µM
UWB1.289 [4]
  TGI ±SEM (100% cell growth inhibition, cytostatic): 35 ± 3.63 µM
  GI50: 10 ± 0.81 µM
UWB1.289 [5]
  PRI (Proliferation Rate Index): 1.77 *
MRC-5
  TGI ±SEM (100% cell growth inhibition, cytostatic): >100 µM
  GI50: 86 ± 9.95 µM
PARP2 mRNA (PARP2/ACTB)
  increase of the PARP2/ACTB mRNA ratio: 140- to150 fold
In vitro
  IC50: > 100 µM

## CC(C)CCCC(C)[C@H]1CCC2C3NC(=O)C=C4C[C@@H](OC(=O)CCOc5ccc(N(CCCl)CCCl)cc5)CC[C@]4(C)C3CC[C@@]21C (stereo partly drawn) [ASA-C, 7a,9a-dimethyl-10-((R)-6-methylheptan-2-yl)-2-oxo-1,2,4,5,6,7,7a,7b,8,9,9a,10,11,12,12a,12b-hexadecahydrobenzo[d]indeno[4,5-b]azepin-5-yl 3-(4-(bis(2-chloroethyl)amino)phenoxy)propanoate]
[7]
  Mean SCE/Chromosome ± SD: 0.19 ± 0.08
  Mean SCEs/metaphase Mean ± SD: 8.81 ± 0.4
[1]
  Mean PRI ± SD: 2.612 ± 0.13
  PRI (Proliferation Rate Index): 2.48 and 2.72 and 2.47 and 2.65 and 2.74
OVCAR-3 [8]
  IC50: > 100 µM
UWB1.289 [9]
  SCE/Chromosome ± SEM: 0.33 ± 0.02
  SCEs/Metaphase ± SEM: 24.53 ± 1.72
SKOV-3 [10]
  IC50: > 100 µM
OVCAR-3 [2]
  TGI ±SEM (100% cell growth inhibition, cytostatic): >100 µM
  GI50: > 100 µM
SKOV-3 [3]
  TGI ±SEM (100% cell growth inhibition, cytostatic): >100 µM
  GI50: > 100 µM
UWB1.289 [11]
  IC50: > 100 µM
UWB1.289 [4]
  TGI ±SEM (100% cell growth inhibition, cytostatic): >100 µM
  GI50: 73 ± 7.58 µM
UWB1.289 [5]
  PRI (Proliferation Rate Index): 2.15
MRC-5
  TGI ±SEM (100% cell growth inhibition, cytostatic): >100 µM
  GI50: > 100 µM
In vitro
  IC50: > 100 µM

## O=C(c1cc(Cc2n[nH]c(=O)c3ccccc23)ccc1F)N1CCN(C(=O)C2CC2)CC1 [Olaparib]
[1]; Donor 1 PBMCs, 3 μM
  PRI (Proliferation Rate Index): 2.60
  SCE/Chromosome ± SEM: 0.44 ± 0.02
  SCEs/Metaphase ± SEM: 20.43 ± 1.1
[1]; Donor 2 PBMCs, 3 μM
  PRI (Proliferation Rate Index): 2.56
  SCE/Chromosome ± SEM: 0.47 ± 0.03
  SCEs/Metaphase ± SEM: 21.6 ± 1.4
[1]; Donor 3 PBMCs, 3 μM
  PRI (Proliferation Rate Index): 2.47
  SCE/Chromosome ± SEM: 0.52 ± 0.03
  SCEs/Metaphase ± SEM: 23.87 ± 1.5
[1]; Donor 4 PBMCs, 3 μM
  PRI (Proliferation Rate Index): 2.76
  SCE/Chromosome ± SEM: 0.48 ± 0.03
  SCEs/Metaphase ± SEM: 21.92 ± 1.2
[1]; Donor 5 PBMCs, 3 μM
  PRI (Proliferation Rate Index): 2.34
  SCE/Chromosome ± SEM: 0.55 ± 0.04
  SCEs/Metaphase ± SEM: 25.32 ± 1.6
[1]; mean of 5 donors' PBMCs, 3 μM
  Mean PRI ± SD: 2.546 ± 0.16
  Mean SCE/Chromosome ± SD: 0.66 ± 0.04
  Mean SCEs/metaphase Mean ± SD: 22.63 ± 1.95
OVCAR-3 [2]
  TGI ±SEM (100% cell growth inhibition, cytostatic): >100 µM
  GI50: 32 ± 4.64 µM
OVCAR-3 [2]; OVCAR-3, 48 h treatment, MTT
  IC50: > 100 µM
SKOV-3 [3]
  TGI ±SEM (100% cell growth inhibition, cytostatic): >100 µM
  GI50: > 100 µM
SKOV-3 [3]; SKOV-3, 48 h treatment, MTT
  IC50: > 100 µM
UWB1.289 [4]
  TGI ±SEM (100% cell growth inhibition, cytostatic): 85 ± 9.34 µM
  GI50: 14 ± 1.78 µM
UWB1.289 [4]; UWB1.289, 48 h treatment, MTT
  IC50: > 100 µM
UWB1.289 [5]; UWB1.289, 3 μM
  PRI (Proliferation Rate Index): 1.98 *
  SCE/Chromosome ± SEM: 0.90 ± 0.06
  SCEs/Metaphase ± SEM: 66.78 ± 4.45
MRC-5
  TGI ±SEM (100% cell growth inhibition, cytostatic): >100 µM
  GI50: > 100 µM
[6]
  IC50 at 48 h: > 100 µM
